Laboratory results published in PMC6136660 (Steroids, 2018).
Read-outs that look alike come from different tables or passages of the source.

What was measured:
[1] = system: adrenal axis (first-in-morning serum cortisol); test: First-in-morning serum cortisol (adrenal suppression biomarker), MAD; format: in vivo
Procedure: (§1) All biomarkers were analyzed using standard immunoassays by PRA.
Adrenal suppression is the consequence of a negative feedback loop between high circulating cortisol and pharmacological glucocorticoids and adrenal function, leading to loss of responsiveness of the adrenal cortex to ACTH. Adrenal suppression can be seen both acutely (hours after a single dose of pharmacological glucocorticoids), and chronically. Chronic treatment with glucocorticoids leads to chronic deficiencies in multiple steroidal hormones, including cortisol, testosterone, 17-hydroxyprogesterone, corticosterone, and 11-deoxycortisol. The resulting hormonal imbalance puts patients at increased risk for a series of safety concerns. One is adrenal crisis (inability to mount a cortisol stress response after trauma, severe illness, or surgery, with ensuring risk for shock and death). Other safety concerns in children include delay of puberty and growth stunting. Adrenal suppression can be measured with first-in-morning serum cortisol, reflective of the endogenous diurnal cortisol peak pre-awakening. Measurement of first-in-morning cortisol 24 h after the last drug dose indicates whether the drug has suppressed the normal diurnal cortisol response.
First in morning serum cortisol levels were measured in all Phase 1 MAD subjects, at baseline prior to first administration of vamorolone or placebo, 24 h after the first dose (acute suppression), and 24 h after 14 days of daily dosing (chronic suppression) (Fig. 4). The two placebo subjects from each dose group were combined into the same panel. […] At 9.0 mg/kg/day, there was a decline in morning cortisol in all subjects, with 1 subject below the 3.6 µg/dL after first dose, and 3 of 6 subjects after two weeks of daily dosing. […] One subject stopped dosing due to mild elevation of liver enzymes, and their morning cortisol returned to normal levels within a few days of cessation of dosing (Fig. 4). Direct head-to-head comparisons to prednisone-treated subjects were not done in this Phase 1 trial, but approximate comparisons can be done to published literature. Both Fleishaker et al. and we tested serum cortisol 24 h after the first dose of drug. Fleishaker et al. studied doses of 2.5, 5, 10, 20 mg, 40 mg, and 60 mg, with an average weight of subjects of 80 kg. […] For vamorolone, the dose groups showing decreases in morning cortisol 24 h after the initial dose were 3 mg/kg (9 µg/dL cortisol), 9 mg/kg (6 µg/dL cortisol), and 20 mg/kg (4 µg/dL cortisol). […] Two week prednisone treatment data for morning cortisol was not published.

[2] = Phase 1 multiple ascending dose (MAD) pharmacokinetics, 14 days once daily; format: in vivo, human; conditions: for CL/F: human, plasma, oral, read-out: CL/F, range of geometric mean values
Procedure: (§2) The MAD part of the study was initiated after a review of safety and PK data from SAD cohorts 1 to 6. In the MAD part, 4 cohorts containing 8 subjects each were randomized to receive vamorolone or placebo, in a 3:1 ratio, once daily (QD) for 14 days. The duration of dosing in the MAD part was determined based on the PK data from the SAD part. In each cohort, 3 sentinel subjects were administered vamorolone or placebo, in a 2:1 ratio.
The planned dose levels for the MAD part were 1.0 mg/kg (Cohort 1), 3.0 mg/kg (Cohort 2), 9.0 mg/kg (Cohort 3), and 20.0 mg/kg (Cohort 4) or until the maximum tolerated dose (MTD) was identified.
Daily doses of vamorolone (1.0, 3.0, 9.0 and 20.0 mg/kg/day) were given in the morning in a fasted state, daily for 14 days, and PK determined on day 1 (after single dose) and day 14 (after the 14th dose). Consistent with the SAD, mean plasma vamorolone concentrations and dose-related PK parameters increased in a dose related manner (Fig. 3). Log-log plots of the individual subject Cmax and AUC (inf) were linear. Although the slopes ranged from 0.827 to 0.898, the deviation from 1.0 may be a consequence of between-subject variability and not indicative of a less than dose-proportional increase in exposure.

[3] = Clinical safety (treatment-emergent adverse events, MTD, NOAEL), MAD; format: in vivo
Procedure: as §2
After completion of all scheduled safety follow-up visits for a given cohort, the SRC reviewed all available PK and safety data (AEs, physical examination findings, ECGs, vital signs, and clinical laboratory tests) in a blinded manner for the completed cohort prior to making a decision to escalate to the next higher dose level.
Dose escalation in the MAD part was to proceed according to protocol until the MTD was identified. The dose escalation stopping criteria, as listed above in the SAD section, comprised the halting rules for the MAD part. If any of these criteria were met during the 14-day dosing duration in the MAD part, dosing in that cohort was to be halted and no further dose escalation was to occur. If AEs/SAEs occurred more frequently in subjects treated with vamorolone compared to subjects treated with placebo, the SRC was to determine if dose escalation could continue. If dose escalation was terminated, the remaining cohorts could be enrolled to evaluate the safety and PK effects of vamorolone for dose levels between the previously tolerated dose and the dose level at which dose escalation was terminated. Once safety data from additional cohort(s) was assessed, the MTD was defined as the dose level below the dose at which the SRC determined there was an unacceptable risk to subjects.

osteocalcin = test: Serum osteocalcin (bone formation biomarker), MAD; format: in vivo, human; conditions: for Osteocalcin: mean±SEM
Procedure: as §1
Pharmacological glucocorticoids cause bone side effects including osteopenia and bone fragility. Bone turnover markers bridged to later bone morbidities include osteocalcin for bone formation, and CTX1 (C-terminal telopeptide of collagen 1) for bone absorption. These biomarkers predict phenotypes of osteopenia and used in clinical trials to monitor bone side effects of treatments. […] (Supplemental Fig. 2). In the vamorolone Phase 1 trial, serum osteocalcin levels were assayed prior to dosing (Day 1 predose), 8 h after initial dose (Day 1), pre-dose on day 14 of daily dosing, 8 h after the day 14 (last) dose, and during recovery days 15 and 17.

In the case of `C[C@@H]1C[C@H]2[C@@H]3CCC4=CC(=O)C=C[C@]4(C)C3=CC[C@]2(C)[C@@]1(O)C(=O)CO` [vamorolone], the “subjects with morning cortisol below 3.6 µg/dL (adrenal suppression)” value (shortened to “subjects … (adrenal suppression)”) ([1]; 9.0 mg/kg/day, after first dose, n = 6) is reported as 1 subjects, the “subjects … (adrenal suppression)” value ([1]; 9.0 mg/kg/day, after two weeks of daily dosing) is reported as 3 of 6 and the “subjects … (adrenal suppression)” value ([1]; 20.0 mg/kg/day, after a single dose) is reported as 4 of 6. For the same compound, the “subjects … (adrenal suppression)” value ([1]; 20.0 mg/kg/day, after two weeks of dosing) was 5/5, the adrenal suppression ([1]; 1.0 or 3.0 mg/kg/day dose groups, acute and 14 days) was “No evidence of adrenal suppression” and the “difference in potency for acute adrenal suppression (prednisone > vamorolone)” value ([1]; 24 h after the first dose, vamorolone data vs published prednisone data (ref 6)) was 10 fold. For the same compound, the “adrenal suppression potency relative to traditional glucocorticoids” value ([1]; seen at 9.0 and 20.0 mg/kg/day) was ~ 1%, the “drug accumulation between daily doses” value ([2]; Day 1 vs Day 14, once daily 14 days) was “essentially no drug accumulation between doses” and the CL/F ([2]; MAD Day 1, across 1-20 mg/kg/day) was 23.7 to 33.7 mL/min/kg. The CL/F ([2]; MAD Day 14, across 1-20 mg/kg/day) was 21 to 35.8 mL/min/kg, the “subjects experiencing TEAEs” value ([3]; MAD 1.0 mg/kg) was 2 subjects and the “subjects experiencing TEAEs” value ([3]; MAD 3.0 mg/kg) was “none”. The “subjects experiencing TEAEs” value ([3]; MAD 9.0 mg/kg) was “none”, the “subjects experiencing TEAEs” value ([3]; MAD 20 mg/kg) was 2 subjects and the “maximum tolerated dose (MTD)” value ([3]; MAD up to 20 mg/kg/day) was “not reached”. The severe adverse events ([3]; any SAD or MAD dose group) was “no severe adverse events”, the NOAEL at 14 days ([3]; human, in vivo, oral, highest dose tested, 14 days) was 20 mg/kg/day and the “liver finding thought to be drug related” value ([3]; one subject, 20 mg/kg/day MAD cohort, dosing halted) was “mild elevations of liver enzymes”. The Osteocalcin (osteocalcin; MAD 1.0 mg/kg, Day 1 (8 h after initial dose)) was 27.4 ± 9.3 ng/mL, the Osteocalcin (osteocalcin; MAD 1.0 mg/kg, Day 1 (predose), baseline) was 33.2 ± 11.5 ng/mL and the Osteocalcin (osteocalcin; MAD 1.0 mg/kg, Day 14 (8 h after last dose)) was 21.0 ± 7.8 ng/mL. It also gave an Osteocalcin (osteocalcin; MAD 1.0 mg/kg, Day 14 (predose)) of 30.3 ± 9.7 ng/mL, an Osteocalcin (osteocalcin; MAD 1.0 mg/kg, Day 15 recovery) of 28.8 ± 9.3 ng/mL and an Osteocalcin (osteocalcin; MAD 1.0 mg/kg, Day 17 recovery) of 25.9 ± 8.0 ng/mL. It also gave an Osteocalcin (osteocalcin; MAD 3.0 mg/kg, Day 1 (8 h after initial dose)) of 13.6 ± 11.5 ng/mL, an Osteocalcin (osteocalcin; MAD 3.0 mg/kg, Day 1 (predose), baseline) of 13.7 ± 11.6 ng/mL and an Osteocalcin (osteocalcin; MAD 3.0 mg/kg, Day 14 (8 h after last dose)) of 13.0 ± 11.0 ng/mL. For the same compound, the Osteocalcin (osteocalcin; MAD 3.0 mg/kg, Day 14 (predose)) was 17.1 ± 13.3 ng/mL, the Osteocalcin (osteocalcin; MAD 3.0 mg/kg, Day 15 recovery) was 16.1 ± 12.5 ng/mL and the Osteocalcin (osteocalcin; MAD 3.0 mg/kg, Day 17 recovery) was 13.9 ± 9.5 ng/mL. The Osteocalcin (osteocalcin; MAD 9.0 mg/kg, Day 1 (8 h after initial dose)) was 20.4 ± 4.7 ng/mL, the Osteocalcin (osteocalcin; MAD 9.0 mg/kg, Day 1 (predose), baseline) was 32.9 ± 8.6 ng/mL and the Osteocalcin (osteocalcin; MAD 9.0 mg/kg, Day 14 (8 h after last dose)) was 18.7 ± 4.3 ng/mL. It also gave an Osteocalcin (osteocalcin; MAD 9.0 mg/kg, Day 14 (predose)) of 24.0 ± 6.4 ng/mL, an Osteocalcin (osteocalcin; MAD 9.0 mg/kg, Day 15 recovery) of 26.7 ± 5.2 ng/mL and an Osteocalcin (osteocalcin; MAD 9.0 mg/kg, Day 17 recovery) of 33.5 ± 7.2 ng/mL. For the same compound, the Osteocalcin (osteocalcin; MAD 20.0 mg/kg, Day 1 (8 h after initial dose)) was 20.2 ± 4.6 ng/mL, the Osteocalcin (osteocalcin; MAD 20.0 mg/kg, Day 1 (predose), baseline) was 31.5 ± 6.7 ng/mL and the Osteocalcin (osteocalcin; MAD 20.0 mg/kg, Day 14 (8 h after last dose)) was 17.0 ± 3.7 ng/mL. It also gave an Osteocalcin (osteocalcin; MAD 20.0 mg/kg, Day 14 (predose)) of 32.8 ± 7.6 ng/mL, an Osteocalcin (osteocalcin; MAD 20.0 mg/kg, Day 15 recovery) of 27.8 ± 5.9 ng/mL and an Osteocalcin (osteocalcin; MAD 20.0 mg/kg, Day 17 recovery) of 34.6 ± 6.1 ng/mL. The “osteocalcin and CTX1 vs placebo” value (osteocalcin; any MAD dose group, through 20 mg/kg/day) was “no significant changes”.
